Experimental data from patent US20260041723A1, “BACTERIOPHAGE COMPOSITIONS FOR TREATING STAP[…]” (priority 2020, published 2026).

System: S. aureus strains
Assay type: cell-based
Conditions: resistant or intermediate strains, in the presence of AP-SA02
Protocol: Grey boxes indicate lines on graph depicted in FIG. 5B. […] Vancomycin, 16 μg/mL; AP-SA02, 0.1 pg/mL.
FIG. 6A is data showing bacterial growth measured by turbidity (absorbance at 600 nm) in the presence of AP-SA02 and vancomycin in a checkerboard assay. Grey boxes show lines on graph depicted in FIG. 6B. […] Vancomycin, 2 μg/mL.
Standard therapy for subjects with a S. aureus infection includes vancomycin and daptomycin. Since subjects who receive AP-SA02 are likely to be on these therapies, the effect of AP-SA02 on these antibiotics and vice versa was assessed. Using the standard checkerboard assay, the minimum inhibitory concentration of each antimicrobial alone or in combination with each other, was used to calculate whether two antimicrobials are synergistic, antagonistic, or indifferent (Table 3).

## CN[C@H](CC(C)C)C(=O)N[C@H]1C(=O)N[C@@H](CC(N)=O)C(=O)N[C@H]2C(=O)N[C@H]3C(=O)N[C@H](C(=O)N[C@H](C(=O)O)c4cc(O)cc(O)c4-c4cc3ccc4O)[C@H](O)c3ccc(c(Cl)c3)Oc3cc2cc(c3O[C@@H]2O[C@H](CO)[C@@H](O)[C@H](O)[C@H]2O[C@H]2C[C@](C)(N)[C@H](O)[C@H](C)O2)Oc2ccc(cc2Cl)[C@H]1O [vancomycin]
  breakpoint for vancomycin in the presence of phage: 0.5 to 2 µg/mL
